From patent US11345673B2, “1-phenylpropanone compounds and use thereof” (UNIVERSITA' DEGLI STUDI DI PADOVA, priority 2016, dated 2022) come the findings set out here.

Common to all, as to format: cell-based
For experiment [1], the system named is neuroblastoma (SK-N-BE) cells. The experiment in a line: Proapoptotic effect by flow cytofluorometry, SK-N-BE cells. Particulars: Homo sapiens, three experiments in triplicate, read-out: IC50 ± S.D. (concentration required to cause 50% apoptosis), SK-N-BE. An excerpt: (§1) Flow cytofluorometry was used to evaluate the ability of some compounds of the invention to induce cell death, with particular reference to apoptosis. This latter phenomenon is characterized by morphological modification of the plasmatic membrane as a result of the translocation of the phospholipid phosphatidylserine (PS) in the plasmatic membrane from the cytoplasmic side to the outer surface of the cell. […] Annexin is detected because it is conjugated to a specific fluorochrome, thus allowing to distinguish apoptosis from necrotic phenomena, which are instead measured by the fluorescent dye propidium iodide, which penetrates freely in the cell having a damaged plasmatic membrane.
Both primary lymphocytic tumor cells taken from patients with chronic lymphatic leukemia (LLC) and humanized cell lines of neuroblastoma (SK-N-BE), hepatocarcinoma (HepG2 and HUH7.5) and breast cancer (MDA-MB-231) were used. […]
(§2) The results obtained by cytofluorometry from three separate experiments executed in triplicate were tabulated, estimating the concentration required to cause 50% apoptosis (IC50), and standard deviation.

Experiment [2] relates to breast cancer (MDA-MB-231) cells. Kind of experiment: Proapoptotic effect by flow cytofluorometry, MDA-MB-231 cells. Particulars: Homo sapiens, 24 hours incubation, three experiments in triplicate, read-out: IC50 ± S.D. (concentration required to cause 50% apoptosis), MDA-MB-231.
Text: as §1
(§3) Both primary lymphocytic tumor cells taken from patients with chronic lymphatic leukemia (LLC) and humanized cell lines of neuroblastoma (SK-N-BE), hepatocarcinoma (HepG2 and HUH7.5) and breast cancer (MDA-MB-231) were used.
(§4) HepG2 (2×10^5 cells per well), HUH7.5 and MDA-MB-231 (1.5×10^5 cells per well) cells were seeded on a 6-well plate in Dulbecco's Modified Eagle Medium (DMEM), 10% FBS and cultured at 37° C. in a 5% CO2 atmosphere. After 24 hours, the medium was removed and replaced by DMEM containing the test compounds, previously dissolved in 100% dimethylsulfoxide, and diluted such that the final concentration of the same in cell incubation solutions was 0.5% (v/v). After 30 minutes incubation, 10% FBS was added, and the cells were incubated for 24 hours, then detached with trypsin, and analyzed by cytofluorimeter. LLC cells (1×10^6 cells per well) were seeded and cultured on 12-well plates in RPMI-1640 medium, 10% FBS, at 37° C. in a humified atmosphere containing 5% CO2. To this medium, test compounds were added, and incubation was carried out for 24 hours, after which time the cells were analyzed by cytofluorimeter.
as §2

In experiment [3] the test system is hepatocarcinoma (HepG2) cells. The experiment in a line: Proapoptotic effect by flow cytofluorometry, HepG2 cells. Particulars: Homo sapiens, 24 hours incubation, three experiments in triplicate, read-out: IC50 ± S.D. (concentration required to cause 50% apoptosis), HepG2.
Text: as §1, §3, §4, §2

Experiment [4] has as its system primary lymphocytic tumor cells taken from patients with chronic lymphatic leukemia (LLC). Kind of experiment: Proapoptotic effect by annexin V/propidium iodide flow cytofluorometry, LLC cells. To be noted: Homo sapiens, 24 hours incubation, three experiments in triplicate, read-out: IC50 ± S.D. (concentration required to cause 50% apoptosis), LLC.
Text: as §1, §3, §4
Leukemic lymphocytes were isolated, following heparinized venous withdrawal from peripheral blood of LLC patients, diluted with saline in a 1:3 ratio, layered on a Ficoll/Hypaque (F/H) density gradient, centrifuged at 900 rpm for 20 minutes, at 20° C. without brakes. Mononuclear cells and platelets, concentrating on top of the F/H gradient, were separated after 2 further washings, with centrifugation at 400 rpm at room temperature. The mononuclear cells thus obtained were washed 3 times with PBS, centrifuged for 10 minutes at 400 rpm, at 20° C. with brakes, and resuspended in RPMI 1640.
In most LLC cases, the percentage of leukemic B cells was higher than 85% with respect to all mononuclear cells from peripheral blood.
as §2

Experiment [5] concerns hepatocarcinoma (HUH7.5) cells. The experiment in a line: Proapoptotic effect by flow cytofluorometry, HUH7.5 cells. To be noted: Homo sapiens, 24 hours incubation, three experiments in triplicate, read-out: IC50 ± S.D. (concentration required to cause 50% apoptosis), HUH7.5.
Text: as §1, §3, §4, §2

On to `CCCCCCOc1ccc(C(=O)CCN2CCOCC2)cc1` [Compound 1, 1-(4-(hexyloxy)phenyl)-3-morpholinopropan-1-one], for which the IC50 in experiment [1] came out at 1850 ± 90 nM; in experiment [2] it was 1610 ± 80 nM; in experiment [3], 1670 ± 150 nM; in experiment [4], 1610 ± 100 nM; in experiment [5], 1580 ± 70 nM.
The matching figures for `CCCCCCCOc1ccc(C(=O)CCN2CCOCC2)cc1` [Compound 2, 1-(4-(heptyloxy)phenyl)-3-morpholinopropan-1-one]: 1640 ± 90 nM, 1610 ± 70 nM, 1550 ± 130 nM, 1620 ± 150 nM and 1580 ± 100 nM.
The matching figures for `CCCCCCOc1ccc(C(=O)CCN2CCCCC2)cc1` [Compound 3, 1-(4-(hexyloxy)phenyl)-3-(piperidin-1-yl)propan-1-one]: 3000 ± 170 nM, 2600 ± 100 nM, 3070 ± 90 nM, 2530 ± 150 nM and 2750 ± 90 nM.
The matching figures for `CCCCCCCOc1ccc(C(=O)CCN2CCCCC2)cc1` [Compound 4, 1-(4-(heptyloxy)phenyl)-3-(piperidin-1-yl)propan-1-one]: 2930 ± 80 nM, 3010 ± 150 nM, 3000 ± 150 nM, 3030 ± 70 nM and 2780 ± 130 nM.
With `CCCCCCCOc1ccc(C(=O)CCN2CCN(C)CC2)cc1` [Compound 5, 1-(4-(heptyloxy)phenyl)-3-(4-methylpiperazin-1-yl)propan-1-one], the IC50 turned out to be 1550 ± 100 nM in experiment [1]; 1480 ± 90 nM in experiment [2]; 1600 ± 50 nM in experiment [3]; 1450 ± 60 nM in experiment [4]; 1610 ± 80 nM in experiment [5].
The matching figures for `CCCCCSc1ccc(C(=O)CCN2CCOCC2)cc1` [Compound 6, 3-morpholino-1-(4-(pentylthio)phenyl)propan-1-one]: 8200 ± 100 nM, 8000 ± 70 nM, 8000 ± 100 nM, 8500 ± 80 nM and 8250 ± 120 nM.
Regarding `CCCCCCSc1ccc(C(=O)CCN2CCOCC2)cc1` [Compound 7, 1-(4-(hexylthio)phenyl)-3-morpholinopropan-1-one], the IC50 in experiment [1] is 530 ± 90 nM; in experiment [2] it was 500 ± 200 nM; in experiment [3], 490 ± 110 nM; in experiment [4], 500 ± 200 nM; in experiment [5] it was 560 ± 200 nM.
For the molecule `CCCCCCCSc1ccc(C(=O)CCN2CCOCC2)cc1` [Compound 8, 1-(4-(heptylthio)phenyl)-3-morpholinopropan-1-one], the IC50 in experiment [1] worked out at 600 ± 50 nM; in experiment [2] it was 660 ± 120 nM; in experiment [3], 570 ± 80 nM; in experiment [4] it was 550 ± 90 nM; in experiment [5] it was 630 ± 80 nM.
On to `CCCCCSc1ccc(C(=O)CCN2CCCCC2)cc1` [Compound 9, 1-(4-(pentylthio)phenyl)-3-(piperidin-1-yl)propan-1-one], for which the IC50 in experiment [1] stood at 1850 ± 140 nM; in experiment [2], 1800 ± 60 nM; in experiment [3], 1660 ± 100 nM; in experiment [4] it was 1750 ± 40 nM; in experiment [5], 1730 ± 90 nM.
The like results for `CCCCCCSc1ccc(C(=O)CCN2CCCCC2)cc1` [Compound 10, 1-(4-(hexylthio)phenyl)-3-(piperidin-1-yl)propan-1-one] were, in that order, 1670 ± 50 nM, 1800 ± 90 nM, 1700 ± 50 nM, 1870 ± 70 nM and 1800 ± 110 nM.
Regarding `CCCCCCCSc1ccc(C(=O)CCN2CCCCC2)cc1` [Compound 11, 1-(4-(heptylthio)phenyl)-3-(piperidin-1-yl)propan-1-one], the IC50 in experiment [1] came to 540 ± 90 nM; in experiment [2] it was 560 ± 60 nM; in experiment [3], 590 ± 10 nM; in experiment [4], 500 ± 40 nM; in experiment [5] it was 490 ± 70 nM.
Consider `CCCCCSc1ccc(C(=O)CCN2CCN(C)CC2)cc1` [Compound 12, 3-(4-methylpiperazin-1-yl)-1-(4-(pentylthio)phenyl)propan-1-one], for which the IC50 in experiment [1] is 13170 ± 120 nM; in experiment [2], 11850 ± 70 nM; in experiment [3] it was 12950 ± 50 nM; in experiment [4], 12200 ± 110 nM; in experiment [5], 14540 ± 120 nM.
Regarding `CCCCCCSc1ccc(C(=O)CCN2CCN(C)CC2)cc1` [Compound 13, 1-(4-(hexylthio)phenyl)-3-(4-methylpiperazin-1-yl)propan-1-one], the IC50 turned out to be 670 ± 90 nM in experiment [1]; 650 ± 10 nM in experiment [2]; 590 ± 60 nM in experiment [3]; 650 ± 10 nM in experiment [4]; 600 ± 120 nM in experiment [5].
As for `CCCCCCCSc1ccc(C(=O)CCN2CCN(C)CC2)cc1` [Compound 14, 1-(4-(heptylthio)phenyl)-3-(4-methylpiperazin-1-yl)propan-1-one], the IC50 turned out to be 450 ± 70 nM in experiment [1]; 470 ± 100 nM in experiment [2]; 500 ± 90 nM in experiment [3]; 440 ± 60 nM in experiment [4]; 520 ± 100 nM in experiment [5].
The like results for `CCCCC[Se]c1ccc(C(=O)CCN2CCOCC2)cc1` [Compound 15, 3-morpholino-1-(4-(pentylselenyl)phenyl)propan-1-one] were, in that order, 15710 ± 130 nM, 13900 ± 140 nM, 11110 ± 70 nM, 14200 ± 170 nM and 12200 ± 80 nM.
The like results for `CCCCCC[Se]c1ccc(C(=O)CCN2CCOCC2)cc1` [Compound 16, 1-(4-(hexylselenyl)phenyl)-3-morpholinopropan-1-one] were, in that order, 2470 ± 60 nM, 2580 ± 90 nM, 2620 ± 80 nM, 2530 ± 90 nM and 2600 ± 100 nM.
The matching figures for `CCCCCCC[Se]c1ccc(C(=O)CCN2CCOCC2)cc1` [Compound 17, 1-(4-(heptylselenyl)phenyl)-3-morpholinopropan-1-one]: 500 ± 60 nM, 550 ± 70 nM, 600 ± 70 nM, 550 ± 40 nM and 500 ± 100 nM.
As for `CCCCC[Se]c1ccc(C(=O)CCN2CCCCC2)cc1` [Compound 18, 1-(4-(pentylselenyl)phenyl)-3-(piperidin-1-yl)propan-1-one], the IC50 in experiment [1] amounted to 8000 ± 100 nM; in experiment [2], 7900 ± 100 nM; in experiment [3] it was 7500 ± 150 nM; in experiment [4] it was 8500 ± 150 nM; in experiment [5] it was 8300 ± 80 nM.
The like results for `CCCCCC[Se]c1ccc(C(=O)CCN2CCCCC2)cc1` [Compound 19, 1-(4-(hexylselenyl)phenyl)-3-(piperidin-1-yl)propan-1-one] were, in that order, 11650 ± 60 nM, 13010 ± 120 nM, 12480 ± 120 nM, 10100 ± 80 nM and 11980 ± 110 nM.
The like results for `CCCCCCC[Se]c1ccc(C(=O)CCN2CCCCC2)cc1` [Compound 20, 1-(4-(heptylselenyl)phenyl)-3-(piperidin-1-yl)propan-1-one] were, in that order, 1680 ± 130 nM, 1750 ± 100 nM, 1740 ± 50 nM, 1700 ± 50 nM and 1730 ± 90 nM.
Regarding `CCCCC[Se]c1ccc(C(=O)CCN2CCN(C)CC2)cc1` [Compound 21, 3-(4-methylpiperazin-1-yl)-1-(4-(pentylselenyl)phenyl)propan-1-one], the IC50 came out at 13880 ± 130 nM in experiment [1]; 14230 ± 140 nM in experiment [2]; 15570 ± 30 nM in experiment [3]; 14160 ± 90 nM in experiment [4]; 13600 ± 90 nM in experiment [5].
